Experimental findings from ChEMBL document CHEMBL1131209 (J Med Chem, 1998) are described below.

By Ki is commonly meant the dissociation constant of the complex between target and ligand, obtained from inhibition or displacement.

Assay [1] deals with Glutamate receptor ionotropic, NMDA 2C (Rattus norvegicus, UniProt Q00961). In words: Compound was tested for its binding affinity towards PCP receptor using [3H](+)-NANM in the presence of 5 uM haloperidol from rat brain.
Assay [2] concerns the target T1, Muscarinic acetylcholine receptor M2 (Rattus norvegicus, UniProt P10980).
T1 sequence (P10980 whole entry): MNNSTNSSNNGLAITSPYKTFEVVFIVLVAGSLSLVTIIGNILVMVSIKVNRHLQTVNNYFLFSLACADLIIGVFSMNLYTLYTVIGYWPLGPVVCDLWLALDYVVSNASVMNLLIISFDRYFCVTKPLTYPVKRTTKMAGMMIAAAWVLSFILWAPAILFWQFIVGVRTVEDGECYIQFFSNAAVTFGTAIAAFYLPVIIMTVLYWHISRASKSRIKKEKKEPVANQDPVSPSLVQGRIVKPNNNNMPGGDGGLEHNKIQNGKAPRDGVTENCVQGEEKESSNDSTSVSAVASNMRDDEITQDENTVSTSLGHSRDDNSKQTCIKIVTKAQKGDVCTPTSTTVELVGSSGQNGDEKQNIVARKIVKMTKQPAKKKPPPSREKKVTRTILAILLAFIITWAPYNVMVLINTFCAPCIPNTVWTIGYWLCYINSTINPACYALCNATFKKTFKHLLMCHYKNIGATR
Kind of assay: Compound was tested for its binding affinity towards Muscarinic acetylcholine receptor M2 using [3H]NMS from rat heart.

The target of assay [3] is Serotonin 2 (5-HT2) receptor. Kind of assay: Compound was tested for its binding affinity towards 5-hydroxytryptamine 2 receptor using [3H]ketanserin from guinea pig frontal cortex. The class given is tissue-based, Cavia porcellus.
Assay [4] has as its target T2, Alpha-1B adrenergic receptor (Rattus norvegicus, UniProt P15823).
T2 sequence (P15823 whole entry): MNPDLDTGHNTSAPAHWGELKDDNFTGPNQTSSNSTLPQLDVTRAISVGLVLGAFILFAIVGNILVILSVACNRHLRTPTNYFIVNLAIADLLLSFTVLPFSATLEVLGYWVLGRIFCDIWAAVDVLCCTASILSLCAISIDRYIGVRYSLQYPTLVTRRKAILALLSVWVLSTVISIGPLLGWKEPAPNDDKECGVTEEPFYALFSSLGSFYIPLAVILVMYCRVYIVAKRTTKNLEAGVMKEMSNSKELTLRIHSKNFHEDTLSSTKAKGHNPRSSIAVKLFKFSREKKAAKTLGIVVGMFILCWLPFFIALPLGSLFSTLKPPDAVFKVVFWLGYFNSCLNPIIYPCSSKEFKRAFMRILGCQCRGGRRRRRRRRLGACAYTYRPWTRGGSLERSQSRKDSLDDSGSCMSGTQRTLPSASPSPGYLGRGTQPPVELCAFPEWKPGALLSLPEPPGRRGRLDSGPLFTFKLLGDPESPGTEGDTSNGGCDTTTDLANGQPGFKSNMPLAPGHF
In words: Compound was tested for its binding affinity towards Alpha-1B adrenergic receptor using [3H]prazosin from rat liver.

The target in another assay is Sigma 2 receptor. In words: Binding affinity towards sigma 2 receptor using [3H]DTG in the presence of 200 nM (+)-NANM from guinea pig brain. More on the design: species or system Cavia porcellus.
The target in assay [5] is T3, Alpha-1A adrenergic receptor (Rattus norvegicus, UniProt P43140).
T3 sequence (P43140 whole entry): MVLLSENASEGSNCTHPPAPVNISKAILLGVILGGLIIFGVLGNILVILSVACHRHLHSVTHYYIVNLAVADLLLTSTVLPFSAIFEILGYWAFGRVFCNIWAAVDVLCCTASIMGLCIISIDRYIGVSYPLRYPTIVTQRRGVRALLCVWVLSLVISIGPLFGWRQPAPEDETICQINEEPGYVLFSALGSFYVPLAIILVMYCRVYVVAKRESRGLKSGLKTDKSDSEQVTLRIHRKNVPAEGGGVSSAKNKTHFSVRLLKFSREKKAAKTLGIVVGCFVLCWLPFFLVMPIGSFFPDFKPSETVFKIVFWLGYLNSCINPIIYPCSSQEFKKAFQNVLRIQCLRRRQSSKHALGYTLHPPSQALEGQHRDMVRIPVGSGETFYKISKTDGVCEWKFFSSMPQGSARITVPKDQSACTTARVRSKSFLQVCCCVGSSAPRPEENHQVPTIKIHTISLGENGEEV
In words: Compound was tested for its binding affinity towards Alpha-1A adrenergic receptor using [3H]prazosin from rat submaxillary gland.

The target of another assay is Opioid receptor (Rattus norvegicus, UniProt P33533+P34975+P33535). Kind of assay: Compound was tested for its binding affinity towards Opioid receptors using [3H]naloxone from rat whole brain.
Assay [6] concerns the target Muscarinic acetylcholine receptor M3 (Rattus norvegicus, UniProt P08483). In words: Compound was tested for its binding affinity towards Muscarinic acetylcholine receptor M3 using [3H]NMS from rat submaxillary gland.
The next assay addresses D(2) dopamine receptor (Rattus norvegicus, UniProt P61169). Kind of assay: Compound was tested for its binding affinity towards Dopamine receptor D2 using [3H]spiperone from rat striatum.

Sequence of D(2) dopamine receptor (P61169 whole entry): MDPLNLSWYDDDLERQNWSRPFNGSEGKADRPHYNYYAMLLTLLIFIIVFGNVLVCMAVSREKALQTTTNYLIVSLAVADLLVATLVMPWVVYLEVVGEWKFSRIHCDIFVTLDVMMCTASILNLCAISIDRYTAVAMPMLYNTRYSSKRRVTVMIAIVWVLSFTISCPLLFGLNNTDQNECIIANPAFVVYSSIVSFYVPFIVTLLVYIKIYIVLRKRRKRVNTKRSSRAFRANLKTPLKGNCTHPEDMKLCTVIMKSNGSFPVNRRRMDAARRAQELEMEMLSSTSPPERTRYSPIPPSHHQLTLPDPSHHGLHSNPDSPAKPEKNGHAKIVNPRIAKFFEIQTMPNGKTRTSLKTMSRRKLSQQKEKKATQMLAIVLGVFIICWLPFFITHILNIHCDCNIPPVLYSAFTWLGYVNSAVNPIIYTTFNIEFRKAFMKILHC
Sequence of Glutamate receptor ionotropic, NMDA 2C (Q00961 whole entry): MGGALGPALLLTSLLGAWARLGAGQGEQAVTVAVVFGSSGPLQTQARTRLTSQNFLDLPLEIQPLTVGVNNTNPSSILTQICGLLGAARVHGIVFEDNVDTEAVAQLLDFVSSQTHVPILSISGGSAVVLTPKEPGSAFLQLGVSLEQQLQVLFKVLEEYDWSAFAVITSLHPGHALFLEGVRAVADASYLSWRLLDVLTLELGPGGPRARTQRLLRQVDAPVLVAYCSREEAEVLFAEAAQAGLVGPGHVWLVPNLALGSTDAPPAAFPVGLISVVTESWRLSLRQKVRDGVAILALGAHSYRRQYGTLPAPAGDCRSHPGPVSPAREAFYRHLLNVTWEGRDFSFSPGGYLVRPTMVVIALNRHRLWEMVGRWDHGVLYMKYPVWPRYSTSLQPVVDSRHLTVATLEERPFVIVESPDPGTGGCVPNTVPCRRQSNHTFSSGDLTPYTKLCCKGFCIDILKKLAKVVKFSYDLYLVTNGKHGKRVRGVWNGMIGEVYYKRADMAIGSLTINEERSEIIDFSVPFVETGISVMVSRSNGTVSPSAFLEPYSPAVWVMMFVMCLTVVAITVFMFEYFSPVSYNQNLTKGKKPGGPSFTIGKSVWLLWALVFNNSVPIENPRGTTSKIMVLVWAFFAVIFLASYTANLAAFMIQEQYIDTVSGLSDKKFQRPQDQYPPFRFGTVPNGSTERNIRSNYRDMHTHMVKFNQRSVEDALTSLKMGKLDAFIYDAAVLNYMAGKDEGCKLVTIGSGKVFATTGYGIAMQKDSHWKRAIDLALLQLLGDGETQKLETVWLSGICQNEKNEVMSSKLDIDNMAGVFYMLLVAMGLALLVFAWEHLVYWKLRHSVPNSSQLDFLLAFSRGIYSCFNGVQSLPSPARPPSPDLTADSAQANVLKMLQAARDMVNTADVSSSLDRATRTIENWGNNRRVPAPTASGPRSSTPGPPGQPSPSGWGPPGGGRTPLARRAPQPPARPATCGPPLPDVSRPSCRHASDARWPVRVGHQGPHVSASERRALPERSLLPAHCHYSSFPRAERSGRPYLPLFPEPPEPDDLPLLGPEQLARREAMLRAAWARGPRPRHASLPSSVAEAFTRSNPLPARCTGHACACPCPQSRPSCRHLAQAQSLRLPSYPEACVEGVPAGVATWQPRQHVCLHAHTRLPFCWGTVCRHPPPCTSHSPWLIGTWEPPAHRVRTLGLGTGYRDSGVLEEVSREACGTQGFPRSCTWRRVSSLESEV
Sequence of Muscarinic acetylcholine receptor M3 (P08483 whole entry): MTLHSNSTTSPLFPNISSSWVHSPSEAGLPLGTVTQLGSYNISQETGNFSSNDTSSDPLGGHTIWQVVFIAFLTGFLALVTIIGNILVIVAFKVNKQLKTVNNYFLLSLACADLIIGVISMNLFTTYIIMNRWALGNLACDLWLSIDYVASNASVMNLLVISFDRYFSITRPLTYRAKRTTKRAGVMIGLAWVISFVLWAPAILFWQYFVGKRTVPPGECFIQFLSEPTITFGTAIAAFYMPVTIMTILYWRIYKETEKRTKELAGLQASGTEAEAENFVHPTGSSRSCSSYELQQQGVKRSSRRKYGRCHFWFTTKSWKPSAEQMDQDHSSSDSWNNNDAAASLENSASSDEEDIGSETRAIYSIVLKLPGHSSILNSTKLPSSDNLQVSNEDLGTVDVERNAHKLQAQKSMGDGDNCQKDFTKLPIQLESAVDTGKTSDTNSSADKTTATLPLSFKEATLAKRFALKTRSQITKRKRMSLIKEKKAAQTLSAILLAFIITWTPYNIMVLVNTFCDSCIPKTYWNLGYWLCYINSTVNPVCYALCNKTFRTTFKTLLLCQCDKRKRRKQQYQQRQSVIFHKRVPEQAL

For the compound `O=C1c2ccccc2CCC12CCN(Cc1ccccc1)CC2`, the Ki in assay [1] is > 10 µM; in assay [2], 2.7 µM; in assay [3] it was 0.218 µM; in assay [4], > 10 µM; on Sigma 2 receptor, 0.01 µM; in [5] it was > 10 µM. Besides, the Ki (at Opioid receptor; in [6]) was > 10 µM throughout.
Turning to `c1ccc(CN2CCC3(CCc4ccccc4O3)CC2)cc1`, the Ki was > 10 µM in [1]; > 10 µM in [2]; > 10 µM in assay [3]; > 10 µM on D(2) dopamine receptor; > 10 µM in assay [4]; 0.022 µM at Sigma 2 receptor. The Ki (in assay [5]; at Opioid receptor; in [6]) was > 10 µM throughout.
`CN1CCN(C2=Nc3cc(Cl)ccc3Nc3ccccc32)CC1` [CLOZAPINE]: the inhibitory constant (Ki) at Sigma 2 receptor was > 10 µM.
Compound `COc1ccccc1CNCCCCCCNCCCCCCCCNCCCCCCNCc1ccccc1OC` [METHOCTRAMINE] registered a Ki in [6] of 0.998 µM.
Turning to `c1ccc(CN2CCC3(CCc4ccccc4S3)CC2)cc1`, the inhibitory constant (Ki) is > 10 µM in assay [1]; 10.8 µM in assay [2]; 7.6 µM in assay [3]; 10.4 µM on D(2) dopamine receptor; > 10 µM in assay [4]; 0.416 µM on Sigma 2 receptor. In addition, the Ki (in assay [5]; at Opioid receptor; in assay [6]) was > 10 µM each time.
For the compound `O=S1(=O)c2ccccc2CCC12CCN(Cc1ccccc1)CC2`, the Ki in assay [1] is > 10 µM; in [2] it was > 10 µM; in assay [3], > 10 µM; at D(2) dopamine receptor, > 10 µM; in assay [4], > 10 µM; at Sigma 2 receptor, 1.8 µM. In addition, the Ki (in [5]; at Opioid receptor; in assay [6]) was > 10 µM in each case.
As for `[O-][S+]1c2ccccc2CCC12CCN(Cc1ccccc1)CC2` (stereo unspecified), the inhibition constant (Ki) in assay [1] was > 10 µM; in [2] it was > 10 µM; in assay [3], > 10 µM; at D(2) dopamine receptor, > 10 µM; in assay [4], > 10 µM; on Sigma 2 receptor it was 1.7 µM. The Ki (in assay [5]; on Opioid receptor; in [6]) was > 10 µM throughout.
